# From patent US20200323203A1, “SYNERGISTIC PESTICIDAL COMPOSITIONS AND METHODS FOR DELIVERY OF ACTIVE INGREDIENTS” (0903608 B.C. Ltd., priority 2017, published 2020)
# Several values for one entry are separate records, joined by “and”; a condition that tells them apart may be missing. Equal values may be shown once.
# Experiments:
# [1] = test system: Fusarium oxysporum; assay: Synergistic Growth Inhibition Assay (MIC / FIC index), Fusarium oxysporum; assay type: cell-based; details: individual compound alone
# Protocol: (§1) In some embodiments, the synergistic action between the pesticidal active ingredient, and the at least one C6-C10 (or alternatively C11 or C12) saturated or unsaturated aliphatic acid components of the pesticidal compositions according to embodiments of the present disclosure was tested using a Synergistic Growth Inhibition Assay, which is derived from and related to a checkerboard assay as is known in the art for testing of combinations of antimicrobial agents. In the Synergistic Growth Inhibition Assay used in accordance with some embodiments of the present disclosure, multiple dilutions of combinations of pesticidal active ingredient and at least one C6-C10 saturated or unsaturated aliphatic acid agents are tested in individual cells for inhibitory activity against a target pest or pathogenic organism. In one such embodiment, the combinations of pesticidal active ingredient and C6-C10 (or alternatively C11 or C12) saturated or unsaturated aliphatic acid agents may preferably be tested in decreasing concentrations. In a further such embodiment, the combinations of pesticidal active ingredient and C6-C10 (or alternatively C11 or C12) saturated or unsaturated aliphatic acid agents may be tested in increasing concentrations. These multiple combinations of the pesticidal active ingredient and at least one C6-C10 (or alternatively C11 or C12) saturated or unsaturated aliphatic acid agents may be prepared in 96-well microtiter plates. In one such embodiment, the Synergistic Growth Inhibition Assay then comprises rows which each contain progressively decreasing concentrations of the pesticidal active ingredient and one or more C6-C10 (or alternatively C11 or C12) saturated or unsaturated aliphatic acid agents to test for the MIC of the agents in combination at which growth of the target pest or pathogen is inhibited. Thus, each well of the microtiter plate is a unique combination of the two agents, at which inhibitory efficacy of the combination against the target pest or pathogen can be determined.
# In one embodiment according to the present disclosure, for each row of microtiter cells in the Synergistic Growth Inhibition Assay, the FIC index is calculated from the lowest concentration of the pesticidal active ingredient and one or more C6-C10 saturated or unsaturated aliphatic acid agents necessary to inhibit growth of a target pest or pathogen. The FIC of each component is derived by dividing the concentration of the agent present in that well of the microtiter plate by the minimal inhibitory concentration (MIC) needed of that agent alone to inhibit growth of the target pest or pathogen. The FIC index is then the sum of these values for both agents in that well of the microtiter plate. The FIC index is calculated for each row as follows:
# FICindex=MICa/MICA+MICb/MICB
# Fractional inhibitory concentration indices may then used as measure of synergy. […] When the FIC index is equal to 1, the combination is additive.
# Then, serial dilutions of these initial compositions in successive wells in the row of the microtiter plate were used to assay the pesticidal composition under the same conditions to determine the concentration of the composition combining the two agents corresponding to the microtiter well in which growth inhibition of the target pest or organism ceases. […]
# [2] = Solubility / effective solubilized concentration in 10% DMSO/90% PDB by HPLC; details: aqueous with cosolvent or surfactant or cyclodextrin, kinetic from dmso stock
# [3] = physchem; details: aqueous with cosolvent or surfactant or cyclodextrin, kinetic from dmso stock
# [4] = test system: Botrytis cinerea; assay: Synergistic Growth Inhibition Assay (MIC / FIC index), Botrytis cinerea; assay type: cell-based
# Protocol: as §1, with “In one such embodiment, the Synergistic Growth Inhibition Assay then comprises rows which each contain progressively decreasing concentrations of the pesticidal active ingredient and one or more C6-C10 (or alternatively C11 or C12) saturated or unsaturated aliphatic acid agents to test for the MIC of the agents in combination at which growth of the target pest or pathogen is inhibited.” left out
# (§2) In one embodiment according to the present disclosure, for each row of microtiter cells in the Synergistic Growth Inhibition Assay, the FIC index is calculated from the lowest concentration of the pesticidal active ingredient and one or more C6-C10 saturated or unsaturated aliphatic acid agents necessary to inhibit growth of a target pest or pathogen. […] The FIC index is calculated for each row as follows: […]
# [5] = test system: Sclerotinia sclerotiorum; assay: Synergistic Growth Inhibition Assay (MIC / FIC index), Sclerotinia sclerotiorum; assay type: cell-based
# Protocol: as §1, with “In one such embodiment, the Synergistic Growth Inhibition Assay then comprises rows which each contain progressively decreasing concentrations of the pesticidal active ingredient and one or more C6-C10 (or alternatively C11 or C12) saturated or unsaturated aliphatic acid agents to test for the MIC of the agents in combination at which growth of the target pest or pathogen is inhibited.” left out
# as §2
# [6] = 10% DMSO/90% potato dextrose broth (PDB)
# [7] = effective solubilized concentration of working stock solution, DMSO stock diluted 10-fold in PDB, verified by HPLC
# [8] = solubility, in 10% DMSO/90% PDB, HPLC
structure (smiles),measurement,setting,value
"CCCCCC(=O)O [Hexanoic acid, hexanoic acid]",MIC (A) / MIC (B) of the compound used alone,[1]; incubation period of 48 hours,156.2 µg/mL
"CCCCCCCCCC(=O)[O-].[K+] [Decanoic acid, potassium salt, decanoic acid, potassium salt]",MIC (A) / MIC (B) of the compound used alone,[1]; 24 hour incubation,78.12 µg/mL
CCCC1COC(Cn2cncn2)(c2ccc(Cl)cc2Cl)O1 (centres unmarked) [Propiconazole],solubility,[2]; [6],89 µg/mL
"C/C=C/C=C/C(=O)[O-].[K+] [(2E,4E)-2,4-hexadienoic acid, potassium salt]",MIC (A) / MIC (B) of the compound used alone,[1]; 24 hour incubation,625 µg/mL
Fc1ccc([C@]2(Cn3cncn3)O[C@H]2c2ccccc2Cl)cc1 (racemic) [Epoxiconazole],solubility,[3],30 µg/mL
"CCCCCCCCCC(=O)O [Decanoic acid, decanoic acid]",MIC (A) / MIC (B) of the compound used alone,[1]; 24 hour incubation,250 µg/mL
same,MIC,"[4]; Botrytis cinerea, 96 h, Compound B alone, incubation 4 days",500 µg/mL
"N#Cc1c[nH]cc1-c1cccc2c1OC(F)(F)O2 [Fludioxonil, fludioxonil]",solubility,[2]; [7],21 µg/mL
same,solubility,[2]; [8],15.4 µg/mL
N#Cc1c(Cl)c(Cl)c(Cl)c(C#N)c1Cl [Chlorothalonil],solubility,[2]; [7],2 µg/mL
"CCCCCCCCCCCC(=O)O [Dodecanoic acid, dodecanoic acid]",MIC (B),"[4]; Compound B alone, incubation 48 hours",50 µg/mL
same,MIC (B),"[5]; Compound B alone, incubation 7 days",50 µg/mL
CC(C)(C)C(O)(CCc1ccc(Cl)cc1)Cn1cncn1 (centres unmarked) [Tebuconazole],solubility,[2]; [6],450 µg/mL
CO/C=C(/C(=O)OC)c1ccccc1Oc1cc(Oc2ccccc2C#N)ncn1 [Azoxystrobin],MIC (A) / MIC (B) of the compound used alone,[1]; incubation period of 48 hours,75 µg/mL and 150 µg/mL
same,MIC (A) / MIC (B) of the compound used alone,"[4]; individual compound alone, incubation period of 48 hours",37.5 µg/mL and 75 µg/mL
same,MIC (A) / MIC (B) of the compound used alone,"[5]; individual compound alone, incubation period of 7 days",150 µg/mL
COCC(=O)N(c1c(C)cccc1C)C(C)C(=O)OC (centres unmarked) [Metalaxyl],solubility,[2]; [7],316 µg/mL
C/C=C(/C)C(=O)O[C@H]1C[C@@H](OC(C)=O)[C@@]2(C)CO[C@H]3[C@H]4O[C@@H]5C[C@@H](c6ccoc6)C(C)=C5[C@@]4(C)[C@H](CC(=O)OC)[C@]1(C)[C@@H]32 [Salannin],MIC,"[5]; Sclerotinia sclerotiorum, […], Compound A alone, incubation 7 days",500 µg/mL
"COC(=O)N(OC)c1ccccc1COc1ccn(-c2ccc(Cl)cc2)n1 [Pyraclostrobin, pyraclostrobin]",solubility,[2]; [7],15 µg/mL
same,solubility,[2]; [8],15.4 µg/mL
